Experimental data published in patent US6706663B2, “Herbicidal 3-heterocyclic substituted benzisothiazole and benzisoxazole compounds” (Wyeth, priority 2000, dated 2004).

What was measured:
[1] = test system: GLXMAW (Soybean, Williams); test: Preemergence herbicidal evaluation; format: in vivo, Glycine max, (L.) Merr. cv Williams; conditions: preemergence, rated 4-5 weeks after treatment
GALAP (Galium aparine) [2] = test: Preemergence herbicidal evaluation; format: in vivo; conditions: preemergence, rated 4-5 weeks after treatment
Summary of the method: (§1)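 Preemergence soil spray, aq. acetone; greenhouse; visual 0–9 score vs control at 4–5 wk.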

GALAP (Galium aparine) [3] = test: Postemergence herbicidal evaluation; format: in vivo
Summary of the method: (§2)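 Visual 0–9 injury scores versus control plants, covering stand, vigour, malformation, size, chlorosis and general appearance, taken four to five weeks post-spray and averaged over replicate tests. Plants were sprayed at roughly two weeks old and held on greenhouse benches.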

ZEAMX (Corn, Field) = test: Preemergence herbicidal evaluation; format: in vivo, Zea mays, L.; conditions: preemergence, rated 4-5 weeks after treatment
SETVI (Setaria viridis) [4] = test: Postemergence herbicidal evaluation; format: in vivo, (L.) Beau
Summary of the method: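 First, seedlings are raised in flats for about two weeks. Next, compound dispersed in 50/50 acetone/water with 0.5% TWEEN 20 is sprayed at 40 psi to deliver about 0.0040–1.000 kg/ha. Plants are then maintained in the greenhouse and rated 0-9 after four to five weeks.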

CYPIR (Cyperus iria) = test: Flooded paddy, preemergence weed control; format: in vivo; conditions: rated 3-4 weeks after treatment, 0-9 rating scale
Summary of the method: (§3)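 Seeds or propagules were planted in the top 0.5 cm of silt loam soil and kept flooded 1.5–3 cm above the surface throughout, then held in the greenhouse. Injury was rated visually on a 0–9 scale against untreated controls, covering stand, vigor, malformation, size and chlorosis.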

[5] = test system: IPOHE (Ipomoea hederacea); test: Preemergence herbicidal evaluation; format: in vivo, (L.) Jacq.; conditions: preemergence, rated 4-5 weeks after treatment
[6] = test system: ECHCG (Echinochloa crus-galli); test: Preemergence herbicidal evaluation; format: in vivo, (L.) Beau; conditions: preemergence, rated 4-5 weeks after treatment
Summary of the method: as §1

SETVI (Setaria viridis) [7] = test: Preemergence herbicidal evaluation; format: in vivo, (L.) Beau; conditions: preemergence, rated 4-5 weeks after treatment
Summary of the method: as §1

[8] = test system: GLXMAW (Soybean, Williams); test: Postemergence herbicidal evaluation; format: in vivo, Glycine max, (L.) Merr. cv Williams
Summary of the method: as §2

[9] = test system: MOOVA (Monochoria vaginalis); test: Flooded paddy, preemergence weed control; format: in vivo, Presl.; conditions: rated 3-4 weeks after treatment, 0-9 rating scale
Summary of the method: as §3

Compound	GLXMAW preemergence herbicidal rating ([1]; Rate 0.0620 kg/ha)	GLXMAW preemergence herbicidal rating ([1]; Rate 0.1250 kg/ha)	GLXMAW preemergence herbicidal rating ([1]; Rate 0.2500 kg/ha)	GALAP preemergence herbicidal rating (GALAP (Galium aparine) [2]; Rate 0.0620 kg/ha)	GALAP preemergence herbicidal rating (GALAP (Galium aparine) [2]; Rate 0.1250 kg/ha)	GALAP preemergence herbicidal rating (GALAP (Galium aparine) [2]; Rate 0.2500 kg/ha)	Postemergence herbicidal rating, GALAP (GALAP (Galium aparine) [3]; rate 0.0320 kg/ha)	Postemergence herbicidal rating, GALAP (GALAP (Galium aparine) [3]; rate 0.0620 kg/ha)	ZEAMX preemergence herbicidal rating (ZEAMX (Corn, Field); Rate 0.0620 kg/ha)	ZEAMX preemergence herbicidal rating (ZEAMX (Corn, Field); Rate 0.1250 kg/ha)	ZEAMX preemergence herbicidal rating (ZEAMX (Corn, Field); Rate 0.2500 kg/ha)	Postemergence herbicidal rating, SETVI (SETVI (Setaria viridis) [4]; rate 0.0320 kg/ha)	Postemergence herbicidal rating, SETVI (SETVI (Setaria viridis) [4]; rate 0.0620 kg/ha)	herbicidal rating, CYPIR (CYPIR (Cyperus iria); rate 0.0320 kg/ha)	herbicidal rating, CYPIR (CYPIR (Cyperus iria); rate 0.1250 kg/ha)	IPOHE preemergence herbicidal rating ([5]; Rate 0.0620 kg/ha)	IPOHE preemergence herbicidal rating ([5]; Rate 0.1250 kg/ha)	IPOHE preemergence herbicidal rating ([5]; Rate 0.2500 kg/ha)	ECHCG preemergence herbicidal rating ([6]; Rate 0.0620 kg/ha)	ECHCG preemergence herbicidal rating ([6]; Rate 0.1250 kg/ha)	other results
Cc1ccsc1-c1nsc2ccc(-n3c(=O)cc(C(F)(F)F)n(C)c3=O)cc12 [Compound 4, 1-methyl-3-[3-(3-methyl-2-thienyl)-1,2-benzisothiazol-5-yl]-6-(trifluoromethyl)uracil]	2.7	4.4	6.0	5.0	8.0	9.0	3.3	6.0	3.2	4.2	5.4	5.0	6.3	9.0	9.0	4.7	6.3	7.6	7.0	8.3	Postemergence herbicidal rating, GALAP (GALAP (Galium aparine) [3]; rate 0.1250 kg/ha): 8.3; Postemergence herbicidal rating, SETVI (SETVI (Setaria viridis) [4]; rate 0.1250 kg/ha): 7.3; herbicidal rating, CYPIR (CYPIR (Cyperus iria); rate 0.0080 kg/ha): 2.0; ECHCG preemergence herbicidal rating ([6]; Rate 0.2500 kg/ha): 9.0; SETVI preemergence herbicidal rating (SETVI (Setaria viridis) [7]; Rate 0.0620 kg/ha): 8.8; SETVI preemergence herbicidal rating (SETVI (Setaria viridis) [7]; Rate 0.1250 kg/ha): 9.0; SETVI preemergence herbicidal rating (SETVI (Setaria viridis) [7]; Rate 0.2500 kg/ha): 9.0; Postemergence herbicidal rating, GLXMAW ([8]; rate 0.0320 kg/ha): 6.2; Postemergence herbicidal rating, GLXMAW ([8]; rate 0.0620 kg/ha): 6.8; Postemergence herbicidal rating, GLXMAW ([8]; rate 0.1250 kg/ha): 7.3; herbicidal rating, MOOVA ([9]; rate 0.0080 kg/ha): 9.0; herbicidal rating, MOOVA ([9]; rate 0.0320 kg/ha): 9.0; herbicidal rating, MOOVA ([9]; rate 0.1250 kg/ha): 9.0
Cn1ccnc1-c1nsc2ccc(-n3c(=O)cc(C(F)(F)F)n(C)c3=O)cc12 [Compound 5, 1-methyl-3-[3-(1-methylimidazol-2-yl)-1,2-benzisothiazol-5-yl]-6-(trifluoromethyl)uracil]	2.0	3.5	6.5	4.0	5.0	7.0	0.0	4.0	4.0	6.5	7.0	0.0	1.0	0.0	7.0	4.0	9.0	9.0	2.5	8.0	ECHCG preemergence herbicidal rating ([6]; Rate 0.2500 kg/ha): 9.0; SETVI preemergence herbicidal rating (SETVI (Setaria viridis) [7]; Rate 0.0620 kg/ha): 9.0; SETVI preemergence herbicidal rating (SETVI (Setaria viridis) [7]; Rate 0.1250 kg/ha): 9.0; SETVI preemergence herbicidal rating (SETVI (Setaria viridis) [7]; Rate 0.2500 kg/ha): 9.0; Postemergence herbicidal rating, GLXMAW ([8]; rate 0.0320 kg/ha): 5.5; Postemergence herbicidal rating, GLXMAW ([8]; rate 0.0620 kg/ha): 6.0; herbicidal rating, MOOVA ([9]; rate 0.0320 kg/ha): 2.0; herbicidal rating, MOOVA ([9]; rate 0.1250 kg/ha): 9.0
Cn1c(C(F)(F)F)cc(=O)n(-c2ccc3snc(-c4ccccn4)c3c2)c1=O [Compound 9, 1-methyl-3-[3-(2-pyridyl)-1,2-benzisothiazol-5-yl]-6-(trifluoromethyl)uracil]	4.0	8.3	8.7	1.5	3.0	7.0	7.0	7.0	6.3	6.7	7.7	8.0	9.0	7.0	9.0	6.3	8.3	9.0	8.3	9.0	Postemergence herbicidal rating, GALAP (GALAP (Galium aparine) [3]; rate 0.1250 kg/ha): 5.0; Postemergence herbicidal rating, SETVI (SETVI (Setaria viridis) [4]; rate 0.1250 kg/ha): 9.0; herbicidal rating, CYPIR (CYPIR (Cyperus iria); rate 0.0080 kg/ha): 8.0; ECHCG preemergence herbicidal rating ([6]; Rate 0.2500 kg/ha): 9.0; SETVI preemergence herbicidal rating (SETVI (Setaria viridis) [7]; Rate 0.0620 kg/ha): 9.0; SETVI preemergence herbicidal rating (SETVI (Setaria viridis) [7]; Rate 0.1250 kg/ha): 9.0; SETVI preemergence herbicidal rating (SETVI (Setaria viridis) [7]; Rate 0.2500 kg/ha): 9.0; Postemergence herbicidal rating, GLXMAW ([8]; rate 0.0320 kg/ha): 8.3; Postemergence herbicidal rating, GLXMAW ([8]; rate 0.0620 kg/ha): 8.3; Postemergence herbicidal rating, GLXMAW ([8]; rate 0.1250 kg/ha): 9.0; herbicidal rating, MOOVA ([9]; rate 0.0080 kg/ha): 8.0; herbicidal rating, MOOVA ([9]; rate 0.0320 kg/ha): 9.0; herbicidal rating, MOOVA ([9]; rate 0.1250 kg/ha): 9.0
COc1ccsc1-c1nsc2ccc(-n3c(=O)cc(C(F)(F)F)n(C)c3=O)cc12 [Compound 10, 3-[3-(3-methoxy-2-thienyl)-1,2-benzisothiazol-5-yl]-1-methyl-6-(trifluoromethyl)uracil]	0.5	1.0	2.5	5.0	8.5	8.0	1.0	1.0	4.0	6.5	7.0	0.0	0.5	4.0	9.0	0.5	0.5	2.0	0.5	5.0	Postemergence herbicidal rating, GALAP (GALAP (Galium aparine) [3]; rate 0.1250 kg/ha): 9.0; Postemergence herbicidal rating, SETVI (SETVI (Setaria viridis) [4]; rate 0.1250 kg/ha): 0.0; ECHCG preemergence herbicidal rating ([6]; Rate 0.2500 kg/ha): 9.0; SETVI preemergence herbicidal rating (SETVI (Setaria viridis) [7]; Rate 0.0620 kg/ha): 7.5; SETVI preemergence herbicidal rating (SETVI (Setaria viridis) [7]; Rate 0.1250 kg/ha): 9.0; SETVI preemergence herbicidal rating (SETVI (Setaria viridis) [7]; Rate 0.2500 kg/ha): 9.0; Postemergence herbicidal rating, GLXMAW ([8]; rate 0.0320 kg/ha): 4.8; Postemergence herbicidal rating, GLXMAW ([8]; rate 0.0620 kg/ha): 5.0; Postemergence herbicidal rating, GLXMAW ([8]; rate 0.1250 kg/ha): 6.0; herbicidal rating, MOOVA ([9]; rate 0.0320 kg/ha): 9.0; herbicidal rating, MOOVA ([9]; rate 0.1250 kg/ha): 9.0
Cc1nnc(-c2nsc3ccc(-n4c(=O)cc(C(F)(F)F)n(C)c4=O)cc23)s1 [Compound 17, 1-methyl-3-[3-(5-methyl-1,3,4-thiadiazol-2-yl)-1,2-benzisothiazol-5-yl]-6-(trifluoromethyl)uracil]	0.0	3.0	5.0	7.0	9.0	9.0	1.0	1.0	6.0	7.0	8.0	0.0	0.0	3.5	7.0	0.0	2.0	9.0	0.0	1.0	Postemergence herbicidal rating, GALAP (GALAP (Galium aparine) [3]; rate 0.1250 kg/ha): 6.0; Postemergence herbicidal rating, GALAP (GALAP (Galium aparine) [3]; rate 0.2500 kg/ha): 6.0; Postemergence herbicidal rating, SETVI (SETVI (Setaria viridis) [4]; rate 0.1250 kg/ha): 3.0; Postemergence herbicidal rating, SETVI (SETVI (Setaria viridis) [4]; rate 0.2500 kg/ha): 7.0; herbicidal rating, CYPIR (CYPIR (Cyperus iria); rate 0.0080 kg/ha): 0.0; ECHCG preemergence herbicidal rating ([6]; Rate 0.2500 kg/ha): 5.0; SETVI preemergence herbicidal rating (SETVI (Setaria viridis) [7]; Rate 0.0620 kg/ha): 0.0; SETVI preemergence herbicidal rating (SETVI (Setaria viridis) [7]; Rate 0.1250 kg/ha): 9.0; SETVI preemergence herbicidal rating (SETVI (Setaria viridis) [7]; Rate 0.2500 kg/ha): 9.0; Postemergence herbicidal rating, GLXMAW ([8]; rate 0.0320 kg/ha): 5.0; Postemergence herbicidal rating, GLXMAW ([8]; rate 0.0620 kg/ha): 6.5; Postemergence herbicidal rating, GLXMAW ([8]; rate 0.1250 kg/ha): 8.0; Postemergence herbicidal rating, GLXMAW ([8]; rate 0.2500 kg/ha): 8.5; herbicidal rating, MOOVA ([9]; rate 0.0080 kg/ha): 6.0; herbicidal rating, MOOVA ([9]; rate 0.0320 kg/ha): 9.0; herbicidal rating, MOOVA ([9]; rate 0.1250 kg/ha): 9.0
